Reference: patent publication US20040229268A1, “Method and kit for identifying antibiotic-resistant microorganisms” (priority 2003, published 2004)

System: mecA gene; rRNA (pan-bacterial probe)
Assay: Hybridization Protection Assay (HPA), AE-labeled probes, thermally lysed specimens (Examples 1-2)
Assay type: binding, S. aureus
Description: The specimens were lysed by suspending approximately 5×10^8 cells in a lysis buffer (0.1% lithium lauryl sulfate, 1 mM EDTA, 20 mM lithium succinate, pH 5.5) and then incubating in a heat block set at 110° C. for 20 minutes. Thermal lysis of a variety of other specimens was effected under a range of temperature (heat block set at about 95° C. to 110° C.) and time (about 10 to 25 minutes) conditions. The lysed samples were tested for the presence of target sequences complementary to the probes using a Hybridization Protection Assay (HPA) as described by Arnold et al., in Clin. Chem. 35:1588(1989) and U.S. Pat. No. 6,004,745. 50 μl of the heat-treated suspension was incubated with an equal volume of AE-labeled probe in 2× hybridization buffer (1.2 M LiCl, 2% lithium lauryl sulfate, 20 mM EDTA, 20 mM EGTA, 100 mM lithium succinate, pH 5.5) at 60° C. for 30 minutes. The pH of succinate solutions may range from about 4.5 to about 5.5, although it is desirable to use a pH of 4.8 for succinate buffering. 300 μl of a selection reagent (0.6 M borate buffered solution, pH 8.5; note, pH may vary from 8.0 to 9.0) was added, the mixture was heated at 60° C. for 10 minutes to effect differential hydrolysis, and the samples were read in a GEN-PROBE® LEADER® luminometer using sequential 300 μl injections of 0.1% H2O2 and 1 N NaOH solutions (see Arnold et al, supra; GEN-PROBE® Detection Reagent Kit, Cat. No. 1791 may be used).
Procedures similar to those described in Example 1 were conducted using a large number of bacterial samples, except that parallel hybridization reactions employed a pan-bacterial probe which targeted rRNA (Probe Reagent 1, GEN-PROBE® MTC-NI Kit, catalog no. 4573). […] The pan-bacterial probe reagent served as a positive control for lysis of all of the specimens. In this procedure each sample was tested against a panel of the three probes contained in separate hybridization reactions. Aliquots of the samples tested using the pan-bacterial probe reagent were diluted 1:3000 prior to performing luminometry so that results fell within the linear range of the detector. The signals indicated lysis and detection of ribosomal nucleic acids in each of the samples. These values depended on the number of bacterial cells in the specimen, as well as on the extent of cell lysis and the release or accessibility of ribosomal nucleic acids from the cells to be detected by the pan-bacterial probe.

## CGCTATGATCCCAATCTAACTTCCACATACC (AE label, linker between 21 and 22, chemistry not fully specified; listed as Staphylococcus aureus) [Probe 2]
No Specimen
  AE-probe Average RLU: 3062 RLU
S. aureus specimen #99, mecA PCR Pos
  AE-probe Average RLU: 8072 RLU
S. aureus specimen #100, mecA PCR Neg
  AE-probe Average RLU: 5585 RLU
Table 2, Negative Control
  AE-Probe Signal (RLU): 1931 RLU
Table 2, specimen 10, mecA PCR Neg, pan-bacterial diluted 1:3000 prior to luminometry
  AE-Probe Signal (RLU): 3274 RLU
Table 2, specimen 99, mecA PCR Pos, pan-bacterial diluted 1:3000 prior to luminometry
  AE-Probe Signal (RLU): 13021 RLU
Table 2, specimen 100, mecA PCR Neg, pan-bacterial diluted 1:3000 prior to luminometry
  AE-Probe Signal (RLU): 6186 RLU
Table 2, specimen 101, mecA PCR Neg, pan-bacterial diluted 1:3000 prior to luminometry
  AE-Probe Signal (RLU): 6266 RLU
Table 2, specimen 102, mecA PCR Pos, pan-bacterial diluted 1:3000 prior to luminometry
  AE-Probe Signal (RLU): 13065 RLU
Table 2, specimen 103, mecA PCR Neg, pan-bacterial diluted 1:3000 prior to luminometry
  AE-Probe Signal (RLU): 2366 RLU
Table 2, specimen 104, mecA PCR Neg, pan-bacterial diluted 1:3000 prior to luminometry
  AE-Probe Signal (RLU): 2000 RLU
Table 2, specimen 105, mecA PCR Neg, pan-bacterial diluted 1:3000 prior to luminometry
  AE-Probe Signal (RLU): 2714 RLU
Table 2, specimen 106, mecA PCR Neg, pan-bacterial diluted 1:3000 prior to luminometry
  AE-Probe Signal (RLU): 2989 RLU
Table 2, specimen 139, mecA PCR Pos, pan-bacterial diluted 1:3000 prior to luminometry
  AE-Probe Signal (RLU): 9563 RLU
Table 2, specimen 140, mecA PCR Pos, pan-bacterial diluted 1:3000 prior to luminometry
  AE-Probe Signal (RLU): 4967 RLU
Table 2, specimen 142, mecA PCR Pos, pan-bacterial diluted 1:3000 prior to luminometry
  AE-Probe Signal (RLU): 10345 RLU
Table 2, specimen 145, mecA PCR Neg, pan-bacterial diluted 1:3000 prior to luminometry
  AE-Probe Signal (RLU): 2788 RLU
Table 2, specimen 148, mecA PCR Pos, pan-bacterial diluted 1:3000 prior to luminometry
  AE-Probe Signal (RLU): 15878 RLU
Table 2, specimen 155, mecA PCR Neg, pan-bacterial diluted 1:3000 prior to luminometry
  AE-Probe Signal (RLU): 2257 RLU
Table 2, specimen 164, mecA PCR Neg, pan-bacterial diluted 1:3000 prior to luminometry
  AE-Probe Signal (RLU): 3287 RLU
Table 2, specimen 178, mecA PCR Pos, pan-bacterial diluted 1:3000 prior to luminometry
  AE-Probe Signal (RLU): 12652 RLU
Table 2, specimen 188, mecA PCR Pos, pan-bacterial diluted 1:3000 prior to luminometry
  AE-Probe Signal (RLU): 20757 RLU
Table 2, specimen 270, mecA PCR Pos, pan-bacterial diluted 1:3000 prior to luminometry
  AE-Probe Signal (RLU): 14965 RLU
Table 2, specimen 296, mecA PCR Pos, Lab Pos control, pan-bacterial diluted 1:3000 prior to luminometry
  AE-Probe Signal (RLU): 10585 RLU
